Among the data in a melting point compilation (Tetko et al.; mined from patent text by program, amines drawn as free bases though some values may be those of a salt) are melting point values, retold here.

The structures appear in SMILES notation.

Broadly, the melting point is the temperature, or range, at which the solid turns liquid. On to `NC(=O)c1cc(-c2ccnc(Nc3cccc(C(F)(F)F)c3)n2)ccn1`, for which the melting point fell in the range of 240 to 242 °C.
`Nc1cccc(OCc2ccccc2)c1NC(=O)c1ccc(OCc2ccccc2)c(C23CC4CC(CC(C4)C2)C3)c1`: the melting point was 80 to 82 °C.
`c1ccc2c(c1)ncc1nncn12`: the melting point was 238 to 239 °C.
The figure for `Nc1ncnc2c1ncn2CC/C=C/P(=O)(O)O` is 263 to 266 °C; for `O[C@H]1COC(c2ccc3c(c2)OCO3)=N[C@@H]1c1ccccc1` (racemic) it is 137 °C.
Consider `FC(F)(F)c1ccc(-c2cc(Oc3ccc4cc[nH]c4c3)ncn2)cc1`, for which the melting point was in the range of 206 to 209 °C.
`CCCCc1nc(SC)c(C(C)(O)C(=O)O)n1Cc1ccc(-c2ccccc2S(=O)(=O)NC(=O)OCc2ccccc2)cc1` (stereo unspecified) showed a melting point of 140 to 150 °C.
`O=C(NS(=O)(=O)c1ccc(Cl)cc1)C1=NN(c2ccc(Cl)cc2)C(c2ccccc2)C1` (stereo unspecified): the melting point is 226 to 229 °C.
The figure for `O=c1[nH]c2ccc(Cl)cc2c(-c2ccccc2)[n+]1[O-]` is 267 to 269 °C; for `Cc1nn(CC(F)(F)COC(=O)c2cccnc2)c(-c2ccc(F)cc2)c1-c1ccc2c(c1)NC(=O)CO2` it is 169 to 172 °C; for `CCn1cc(C(=O)O)c(=O)c2cc(F)c(N3CCNC(c4cc[nH]c4)C3)cc21` (stereo unspecified) it is 220 °C.
As for `CCN1Cc2ccccc2C(=O)c2cc(CC(=O)OC)ccc21`, the melting point was in the range of 116 to 119 °C.
Regarding `Cc1cc(C)nc(NC(=O)NS(=O)(=O)Nc2nc(C)cc(C)n2)n1`, the melting point stood at 198 °C.
The compound `CN(C)Cc1ccc(CSCCNC(=NC(=O)CNN2C(=O)c3ccccc3C2=O)N(C)N=Cc2ccccc2)o1` registered a melting point of 115 °C.
`CCCCOc1cc(C=C[N+](=O)[O-])c([N+](=O)[O-])cc1OCc1ccccc1` gave a melting point of 152 °C.
The figure for `C=CC(=O)OCCCCCCN(C)c1ccc(C=Cc2ccc(S(C)(=O)=O)cc2)cc1` is 88 to 90 °C; for `CC1CCn2c(nc(-c3ccncn3)cc2=O)N1` (stereo unspecified) it is 199 to 201 °C.
In the case of `O=C(O)Cc1ccc(Br)c(O)c1Br`, the melting point is 186 °C.
Take `Cc1cc(C(C)(C)C)c(C)c(O)c1-c1c(C)cc(C(C)(C)C)c(C)c1O`: the melting point lay within 103 to 105 °C.
Turning to `CCCc1nc2cccc(C(O)=S)c2n1Cc1ccc(-c2ccccc2-c2nc(=O)o[nH]2)cc1`, the melting point lay within 220 to 221 °C.
`CCNS(=O)(=O)c1ccccc1C1CCCCC1` had a melting point of 100 to 102 °C.
The figure for `COc1cc(N)ccc1C(=O)NC1(C)CCN(CCCOc2ccc(F)cc2)CC1` is 75.5 °C; for `CC1(C)Cc2c(N)c(Cl)cc(C(=O)NC3CCN(CCNc4nc(O)c5cc(Cl)ccc5n4)CC3)c2O1` it is 207 °C; for `COc1ccc2c(=O)c(-c3ccccc3)coc2c1` it is 156 to 158 °C.
`COc1ccc(CC(=O)Nc2ccc3c(c2)[C@@H](OCCc2ccccc2)[C@H](O)C(C)(C)O3)cc1` (relative stereo) returned a melting point of 161 to 162 °C.
Take `CCCCc1cc2c(=O)n3cc(C(=O)OC)ccc3nc2s1`: the melting point lay within 137 to 138 °C.
Compound `CC1(C)CCC(Cc2ccc(Cl)cc2)C1(O)Cn1ncnc1S` (stereo unspecified) yielded a melting point of 179 to 180 °C.
Compound `N#CC1=C(C2CCCCCC2)Nc2n[nH]cc2C1c1cccc2nonc12` (stereo unspecified) gave a melting point of 228 °C.
Regarding `O=C(O)Cc1ccc(C(=O)O)cc1Sc1ccc(F)cc1`, the melting point is 218 to 221 °C.
`O=C(O)CN(c1ccccc1)S(=O)(=O)c1ccccc1`: the melting point is 166 to 167 °C.
In the case of `COCCOc1ccc(COC(C)=O)c(Oc2ncc(C(F)(F)F)cc2Cl)c1` it was 52.5 to 53 °C; in that of `CCCNCc1nc(-c2ncn3c2[C@@H]2CCN2C(=O)c2c(Cl)cccc2-3)no1`, 237 to 239 °C; in that of `O=c1[nH]cc(-c2cccnc2)nc1Cc1ccccc1`, 188 to 190 °C.
Regarding `OC1(c2ccc(Cl)cc2)c2cc(Cl)c(Cl)cc2CCC1Br` (stereo unspecified), the melting point was in the range of 103 to 104 °C.
Regarding `COCOC(C(Cc1ccccc1)NC(=O)[C@@H](NC(=O)OCc1ccccc1)C(C)C)C(Cc1ccccc1)NC(=O)[C@@H](NC(=O)OCc1ccccc1)C(C)C` (stereo partly specified), the melting point lay within 197 to 198 °C.
The figure for `CCCN(CCCc1c[nH]c2ccc(Cl)cc12)C1COc2c(F)ccc(C(N)=O)c2C1` (stereo unspecified) is 148 to 154 °C.
Compound `COc1ccc2c(c1)C(c1ccccc1)NC(=S)N2CC1CC1` (stereo unspecified) gave a melting point of 146 to 147 °C.
The figure for `CN1CCC(C2(O)c3cc(F)ccc3CCc3cccnc32)CC1` (stereo unspecified) is 126 to 127 °C; for `CC(C)(C)[Si](C)(C)O[C@H]1OC[C@@H](n2cnc3cc(Cl)c(Cl)cc32)[C@H](O)[C@@H]1O` it is 128 to 130 °C.
For the compound `CCOC(=O)C1=C(NC(=O)Nc2cc(C(=O)OC(C)C)c(Br)cc2Cl)CCC1`, the melting point lay within 131 to 132 °C.
Compound `CCOC(=O)c1csc(Nc2nc(C(C)(C)C)c(O)c(C(C)(C)C)n2)n1` yielded a melting point of 204 to 206 °C.
In the case of `Cc1ccccc1-c1coc2cc(OCC(=O)O)cc(Cl)c2c1=O`, the melting point was in the range of 191 to 192 °C.
`Cn1ncnc1COc1nn2c(-c3ccccc3F)nncc2c1-c1cccc(C(F)(F)F)c1` gave a melting point of 152 to 155 °C.
The figure for `CC(=O)Nc1cccc(OCCCN2CCC(c3noc4cc(F)ccc34)CC2)c1` is 184 to 186 °C; for `NCC(=O)NCc1cc(=O)c(O)co1` it is 216 to 218 °C; for `COC(=O)c1c(C(=O)OC)c(-c2ccc(OC)c(OC)c2)c2c(OC)c(OC)c(OC)cc2c1O` it is 178 to 179 °C.
The figure for `COC(=O)[C@@H](NC(=O)[C@H](Cc1ccccc1)NC(=O)c1ccccc1)C(C)C` is 160 to 163 °C.
Compound `COC1CCC2C3CCc4cc(O)c(C=O)cc4C3CCC12C` (stereo unspecified) registered a melting point of 120 to 121 °C.
`CC(=O)C(=NNc1ccccc1)Sc1ccc(Cl)cc1` came in with a melting point of 111 to 113 °C.
With `COc1cc(OC)cc(C(C)CCCc2ccncc2)c1` (stereo unspecified), the melting point lay within 131 to 133 °C.
The compound `N#Cc1ccc(C=NO)cc1` registered a melting point of 174 to 176 °C.
On to `Nc1ccccc1Sc1cccc2c1C(=O)c1cccc(Sc3ccccc3N)c1C2=O`, for which the melting point lay in the range of 283 to 284 °C.
For the compound `CC(C#N)=C1CCN(c2ccc(N3C[C@@H](CNNCC(=O)O)OC3=O)cc2F)CC1`, the melting point lay in the range of 141 to 142 °C.
For the compound `CC1(O/N=C(\C(=O)O)c2csc(N)n2)CCCC1`, the melting point lay in the range of 182 to 183 °C.
In the case of `O=C(c1ccc(F)cc1)N1CCC[C@H](c2nc(-c3cscn3)no2)C1` it was 118 to 120 °C; in that of `COC(=O)C(NC(C)=O)C(=O)OCCBr` (stereo unspecified), 84 to 85 °C.
In the case of `CCC1C(=O)Nc2ccc3ccccc3c21` (stereo unspecified), the melting point was 124 to 126 °C.
In the case of `COc1ccc2c(c1)Nc1[nH]cnc(=O)c1C2` it was above 300 °C; in that of `CCOC(=O)C=CC(=O)c1ccc(Oc2ccc(Cl)cc2)cc1`, 57 to 58 °C; in that of `CCn1c(=O)n(-c2ccc(Oc3nc4ccccc4n3C)cc2)c2ncc(Cl)cc21`, 208 to 210 °C.
`CN1CCC(=C2c3ccc(F)cc3CCn3ccnc32)CC1` registered a melting point of 152 °C.
`O=C(O)CCCC(=O)N1CCC(C2c3ccccc3C=Cc3ccccc32)CC1` displayed a melting point of 180 to 186 °C.
In the case of `CC(=O)N1CCN=C1Nc1cc(C)nn1Cc1ccccc1`, the melting point lay within 148 to 149 °C.
`Cc1ccc(C(=O)Nc2cccc(C(F)(F)F)c2)cc1/C=C/n1cnc2c(NC3CC3)ncnc21` had a melting point of 201 °C.
`O=C(O)c1ccccc1Oc1ccc(C(F)(F)F)cc1NS(=O)(=O)c1ccccc1` displayed a melting point of 177 °C.
Compound `COc1ccc(-c2cccc3c2OC(COS(=O)(=O)c2ccc(C)cc2)C3)cc1` (stereo unspecified) returned a melting point of 116 to 117 °C.
For `CC(=O)N1CCc2c(sc(C)c2C(=O)CCN2CCC(c3noc4cc(F)ccc34)CC2)C1`, the melting point was 180 to 182 °C.
Compound `Nc1ncc(-c2ccc(=O)[nH]n2)c(-c2ccc(F)c(F)c2)n1` came in with a melting point of 307 °C.
In turn, `CC(=O)Nc1nc(CCc2ccc(NC(=O)OC(C)(C)C)cc2)c(C(=O)NCc2ccc(S(C)(=O)=O)cc2)s1` showed a melting point of 192 to 193 °C.
The figure for `O=Cc1cc(OCc2ccccc2)c(OCc2ccccc2)cn1` is 104 °C.
In the case of `Cc1cc(NC2CN(C(=O)OCc3ccccc3)CC2O)c2cc(C)c(-c3ccc(Cl)cc3Cl)n2n1` (stereo unspecified) it was 105 to 110 °C; in that of `CCCn1c(=O)c2c(nc(C=Cc3cc(OC)c(OC)c(OC)c3S(N)(=O)=O)n2C)n(CCC)c1=O`, 243 to 245 °C.
For the compound `CCn1nc(C)c(N)c1C(N)=O`, the melting point lay in the range of 143 to 145 °C.
`CN(C)C(=O)c1nc(Cl)c(Cl)[nH]1` registered a melting point of 245 °C.
With `Cc1cc(Oc2ccc(C(F)(F)F)cc2[N+](=O)[O-])nn1C(=O)OC(C)(C)C`, the melting point was 68 to 70 °C.
The figure for `CC(C)(C)c1cc(C2SC(CC(=O)O)C(=O)N2CCCO)cc(C(C)(C)C)c1O` (stereo unspecified) is 227 to 228 °C; for `Cc1ccc(S)c(C=O)c1` it is 181 to 184 °C; for `Cc1cc(C2=NOC(C)(c3cc(Cl)cc(Cl)c3)C2)ccc1C(=O)NCC(O)CO` (stereo unspecified) it is 98 °C.
In the case of `CCCCCCCCCCC1(CCCCCCCCCC)c2cc(Br)ccc2-c2ccc(N(c3ccccc3)c3ccccc3)cc21` it was 66.8 to 69.2 °C; in that of `C=CCNc1nc(C2C(=O)Nc3ccc(Br)cc32)c2cn(C)nc2n1` (stereo unspecified), 336 to 340 °C.
The compound `CN(c1ccc(S(C)(=O)=O)cc1)S(=O)(=O)c1cccc(NC(=O)c2ccc(Br)cc2)c1` returned a melting point of 216 to 218 °C.
`CC(=O)Nc1snc(C)c1[N+](=O)[O-]` displayed a melting point of 210 °C.
In turn, `Cc1nc(N2CCN(Cc3cccc(F)c3)C2=O)sc1C(=O)NCc1ccccc1` gave a melting point of 155 to 156 °C.
In turn, `O=C1CCC(Cc2c[nH]c3ncccc23)N1` (stereo unspecified) gave a melting point of 160 to 162 °C.
As for `CCOC(=O)N=P(c1ccccc1)(c1ccccc1)c1ccccc1OC`, the melting point was 80 to 83 °C.
`CC(=O)N1CCC(Nc2nc3ccccc3n2Cc2ccc(CO)o2)CC1` had a melting point of 214 °C.
